Among the test systems are TK-10 renal; SNB-19 CNS; SK-MEL-2 melanoma; SF-539 CNS; A549 NSCLC; SK-MEL-5 melanoma; BT-549 breast; MALME-3M melanoma; COLO 205 colon; HL-60(TB) leukemia.
Holding throughout (assay): NCI anticancer screen, dose series, 48 h

Each structure is given as a SMILES string.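 Dose response: 5 concentrations. Exposure: 48 h. Format: 96-well plates. Endpoint: linear interpolation; highest concentration if not reached. GI50 = concentration required for 50% inhibition of growth. TGI denotes the concentration required for complete inhibition of growth.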

On to `COc1cc2c3c(n(CCCN=[N+]=[N-])c(=O)c2cc1OC)-c1ccccc1C3=O`, for which the GI50 with TK-10 renal is 13.8 µM; with SNB-19 CNS, 52.7 µM; in the test with SK-MEL-2 melanoma it was > 100 µM; with SF-539 CNS it was 4.73 µM; in the test on A549 NSCLC, 26.2 µM; with SK-MEL-5 melanoma, 3.17 µM. In addition, the GI50 in the test on BT-549 breast was 24.4 µM. For the same molecule, the TGI in the test with TK-10 renal is 75.5 µM; in the test with SNB-19 CNS it was > 100 µM; with SK-MEL-2 melanoma, > 100 µM; in the test with SF-539 CNS, 22.8 µM; in the test with A549 NSCLC, > 100 µM; in the test on SK-MEL-5 melanoma, 9.25 µM. The TGI in the test with BT-549 breast was > 100 µM.
For the molecule `COc1ccc2c(n1)Sc1nc3ccccc3nc1N2`, the TGI is 80.1 µM with TK-10 renal; > 100 µM in the test with SNB-19 CNS; > 100 µM in the test with SK-MEL-2 melanoma; 50.1 µM in the test on SF-539 CNS; > 100 µM in the test with A549 NSCLC; > 100 µM in the test on MALME-3M melanoma. Also, the TGI with COLO 205 colon, in the test on SK-MEL-5 melanoma and in the test on BT-549 breast was > 100 µM each time.
For `O=Cc1ccc(-c2ccc(-c3nc4ccccc4s3)cc2)o1`, the GI50 in the test on TK-10 renal is 22.4 µM; in the test with SNB-19 CNS it was > 100 µM; in the test on SK-MEL-2 melanoma, > 100 µM; in the test with A549 NSCLC, > 100 µM; in the test on COLO 205 colon, > 100 µM; in the test on SK-MEL-5 melanoma, 96.4 µM. Further, the GI50 in the test on BT-549 breast is > 100 µM. The TGI in the test on TK-10 renal is 54 µM; in the test with SNB-19 CNS, > 100 µM; with SK-MEL-2 melanoma it was > 100 µM; with A549 NSCLC, > 100 µM; in the test on COLO 205 colon, > 100 µM; in the test with SK-MEL-5 melanoma, > 100 µM. The TGI with BT-549 breast was > 100 µM.
Turning to `COc1ccc(O)c(/C=N\Nc2ccccc2)c1`, the TGI with HL-60(TB) leukemia is 17.4 µM; with SNB-19 CNS, > 100 µM; in the test on SK-MEL-2 melanoma, > 100 µM; with SF-539 CNS, 68.4 µM; in the test on A549 NSCLC, 48.4 µM; in the test on COLO 205 colon, 26.2 µM. Moreover, the TGI in the test with SK-MEL-5 melanoma and in the test with BT-549 breast was > 100 µM each time.
For `OCC1OC(N2C=C(c3nc4ccccc4s3)C3C=CC=CC32)C(O)C(O)C1O` (configuration not stated), the GI50 with HL-60(TB) leukemia was 17.1 µM; in the test with TK-10 renal it was 12.5 µM; with SNB-19 CNS, 22.1 µM; in the test on SK-MEL-2 melanoma, 31.7 µM; in the test with SF-539 CNS, 14.8 µM; with A549 NSCLC, 18.7 µM. Also, the GI50 in the test on COLO 205 colon was 9.38 µM; in the test on SK-MEL-5 melanoma it was 12.1 µM; in the test on BT-549 breast, 16.5 µM. For the same molecule, the TGI with HL-60(TB) leukemia is > 50 µM; in the test with TK-10 renal it was 32 µM; in the test on SNB-19 CNS it was > 50 µM; in the test on SK-MEL-2 melanoma it was > 50 µM; in the test with SF-539 CNS, 40.3 µM; in the test with A549 NSCLC, > 50 µM. For the same molecule, the TGI in the test on COLO 205 colon was 20.9 µM; with SK-MEL-5 melanoma, 30.5 µM; in the test on BT-549 breast it was > 50 µM.
Consider `COc1cccc(S(=O)(=O)NC2=NCCN2C(=S)SN2CCn3c2nsc3=S)c1`, for which the GI50 with HL-60(TB) leukemia was 26.1 µM; with TK-10 renal, 34.4 µM; with SNB-19 CNS it was 49.8 µM; in the test on SK-MEL-2 melanoma it was 68.2 µM; with SF-539 CNS, 27.3 µM; with A549 NSCLC, > 100 µM. Also, the GI50 was 17.8 µM with COLO 205 colon, 37.9 µM in the test on SK-MEL-5 melanoma and 29.9 µM in the test on BT-549 breast. In addition, the TGI with HL-60(TB) leukemia was 79.4 µM; in the test on TK-10 renal, 81.5 µM; with SNB-19 CNS it was > 100 µM; in the test with SK-MEL-2 melanoma, > 100 µM; in the test with SF-539 CNS it was 70 µM; with A549 NSCLC, > 100 µM. The TGI in the test on COLO 205 colon is 39.6 µM; in the test on SK-MEL-5 melanoma it was > 100 µM; in the test on BT-549 breast, 99.8 µM.
On to `Cc1[nH]c2ccccc2c1CO`, for which the GI50 in the test on HL-60(TB) leukemia was 15.8 µM; in the test with TK-10 renal, 21 µM; with SNB-19 CNS, 39.3 µM; in the test with SK-MEL-2 melanoma, 16.7 µM; with SF-539 CNS, 18.8 µM; in the test with A549 NSCLC, 38.3 µM. For the same molecule, the GI50 is 14.2 µM in the test on COLO 205 colon, 18.1 µM in the test with SK-MEL-5 melanoma and 18.4 µM in the test on BT-549 breast. Besides, the TGI was 39 µM in the test on HL-60(TB) leukemia; 67.1 µM in the test with TK-10 renal; > 100 µM in the test on SNB-19 CNS; 36.6 µM in the test with SK-MEL-2 melanoma; 39.9 µM with SF-539 CNS; > 100 µM in the test on A549 NSCLC. The TGI is 27.3 µM with COLO 205 colon, 36.9 µM in the test with SK-MEL-5 melanoma and 40.3 µM in the test with BT-549 breast.
Take `CCCCN(CCCC)P(=O)(Oc1ccccc1)Oc1ccccc1`: the GI50 in the test with HL-60(TB) leukemia was 4.54 µM; in the test on TK-10 renal, 15.8 µM; in the test with SNB-19 CNS, 8.82 µM; with SK-MEL-2 melanoma it was 11.8 µM; in the test on SF-539 CNS, 14 µM; with A549 NSCLC, 5.06 µM. Besides, the figures for the GI50 in the test with COLO 205 colon, in the test on SK-MEL-5 melanoma and with BT-549 breast were 11.3 µM, 11.5 µM and 14.9 µM, respectively. Moreover, the TGI amounted to 18.7 µM with HL-60(TB) leukemia; 33.1 µM in the test with TK-10 renal; 23.5 µM in the test on SNB-19 CNS; 28 µM in the test on SK-MEL-2 melanoma; 28.6 µM with SF-539 CNS; 19.6 µM with A549 NSCLC. The TGI in the test with COLO 205 colon was found to be 26.7 µM; in the test on SK-MEL-5 melanoma, 23.7 µM; in the test with BT-549 breast, 28.3 µM.

These data come from PubChem BioAssay (NCI).
